{"source": "patent US10039756B2", "about": "“Reducing memory loss in mammals suffering from alzheimer's disease” (The Penn State Research Foundation, priority 2013, dated 2018)", "key": {"5xFAD mice": {"test_system": "5xFAD mice", "assay": "Y-maze spontaneous alternation task", "assay_type": "in vivo, mouse", "details": "1 mg kg-1, i.p., once per day for one week, p<0.05", "description": "L-655,708 was dissolved at 1 mg/mL in DMSO, and frozen in storage aliquots. The working solution was diluted 10 times in normal saline solution. […] The last injection was administrated 30 minutes before behavioral test.\nSpontaneous alternation performance was tested as described elsewhere (Oakley et al., J. Neurosci., 26(40):10129-10140 (2006)). […] It allows the assessment of hippocampus-dependent spatial working memory. Each mouse was placed in the center of a symmetrical Y-maze and was allowed to explore freely through the maze during an 8 minute session. The first two minutes were not included for data analysis because mice were exploring new environment. The total number and the sequence of arm entries in the last 6 minutes were recorded and analyzed. Arm entry was defined as the hind paws of the mice had been completely placed in the arm. Analysis was done blind. The percentage of alternation is the number of triads containing entries into all three arms divided by the maximum possible alternations (the total number of arms entered minus 2)×100.\nA behavioral analysis was conducted to test the effect of enhanced tonic inhibition on the cognitive function of 5xFAD animals. […] Therefore, it was concluded that the abnormal tonic inhibition in DG is an important contributing factor toward the learning and memory deficit in AD."}, "LTP in DG": {"test_system": "LTP in DG", "assay": "Long-term potentiation (LTP) in dentate gyrus, hippocampal slice field EPSP recordings", "assay_type": "cell-based, mouse", "details": "100 nM; 5xFAD dentate granule cells", "description": "(§1) Mice were anesthetized with 2.5% Avertin. After decapitation, brains were rapidly dissected out and placed in ice-cold cutting solution containing: 79 mM NaCl, 80 mM sucrose, 26 mM NaHCO3, 10 mM glucose, 2.5 mM KCl, 1.25 mM NaH2PO4, 7 mM MgSO4, and 0.5 mM CaCl2 for tonic current recordings. The cutting solution for field EPSP recordings contained: 230 mM sucrose, 26 mM NaHCO3, 20 mM glucose, 2.5 mM KCl, 1.25 mM NaH2PO4, 10 mM MgSO4, and 0.5 mM CaCl2. Both solutions were bubbled with 95% O2/5% CO2. […]\n(§2) Whole-cell voltage clamp recordings were performed on dentate gyrus granule cells using a pipette solution containing: 135 mM CsCl, 5 mM Na-phosphocreatine, 10 mM HEPES, 5 mM EGTA, 4 mM MgATP, 5 mM QX-314, and 0.5 mM Na2GTP (pH 7.3 adjusted with CsOH, 280-290 mOsm/L). […] Data was acquired using pClamp 9 software (Molecular Devices; sampled at 10 kHz and filtered at 1 kHz), and analyzed with Clampfit 9.0 software (Molecular Devices). Field excitatory postsynaptic potentials (fEPSPs) were recorded with glass electrodes filled with 1 M NaCl and 25 mM HEPES (pH 7.3), and were evoked every 20 seconds with a parallel bipolar tungsten electrode (MicroProbes, USA), which was placed at medial perforant path in the dentate gyrus. […]"}, "α5-GABAA-Rs": {"molecular_target": "T1, α5-GABAA-Rs (Mus musculus, UniProt P22723+Q8BHJ7)", "T1 construct": "from tissue; host or cells: mouse hippocampal slices; dentate granule cells and CA1 pyramidal neurons", "T1 sequence (P63080 26-473)": "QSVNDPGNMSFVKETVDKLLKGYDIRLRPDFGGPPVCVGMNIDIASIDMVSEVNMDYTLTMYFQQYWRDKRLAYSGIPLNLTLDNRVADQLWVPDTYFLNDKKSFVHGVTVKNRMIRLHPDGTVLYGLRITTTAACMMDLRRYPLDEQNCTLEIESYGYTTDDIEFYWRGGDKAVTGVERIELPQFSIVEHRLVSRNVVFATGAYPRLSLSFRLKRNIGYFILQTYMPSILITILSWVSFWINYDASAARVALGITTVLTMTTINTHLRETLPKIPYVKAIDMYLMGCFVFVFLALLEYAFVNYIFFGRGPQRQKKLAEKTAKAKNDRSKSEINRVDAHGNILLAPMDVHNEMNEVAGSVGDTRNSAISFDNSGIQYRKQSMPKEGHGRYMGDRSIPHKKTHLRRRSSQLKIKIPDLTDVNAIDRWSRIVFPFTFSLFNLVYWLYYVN", "T1 sequence (Q8BHJ7 32-463)": "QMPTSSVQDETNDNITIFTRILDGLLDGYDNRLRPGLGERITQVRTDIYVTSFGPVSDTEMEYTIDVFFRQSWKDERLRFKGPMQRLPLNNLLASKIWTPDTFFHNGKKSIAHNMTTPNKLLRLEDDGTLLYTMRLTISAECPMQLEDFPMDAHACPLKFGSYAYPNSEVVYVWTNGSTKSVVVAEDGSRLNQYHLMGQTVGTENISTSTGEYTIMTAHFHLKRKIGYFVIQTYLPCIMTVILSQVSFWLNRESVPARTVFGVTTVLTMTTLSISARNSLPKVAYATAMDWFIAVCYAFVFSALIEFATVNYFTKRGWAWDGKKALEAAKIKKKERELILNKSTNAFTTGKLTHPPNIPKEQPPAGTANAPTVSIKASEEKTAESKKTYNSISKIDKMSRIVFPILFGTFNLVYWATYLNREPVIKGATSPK", "T1 sequence (P22723 39-474)": "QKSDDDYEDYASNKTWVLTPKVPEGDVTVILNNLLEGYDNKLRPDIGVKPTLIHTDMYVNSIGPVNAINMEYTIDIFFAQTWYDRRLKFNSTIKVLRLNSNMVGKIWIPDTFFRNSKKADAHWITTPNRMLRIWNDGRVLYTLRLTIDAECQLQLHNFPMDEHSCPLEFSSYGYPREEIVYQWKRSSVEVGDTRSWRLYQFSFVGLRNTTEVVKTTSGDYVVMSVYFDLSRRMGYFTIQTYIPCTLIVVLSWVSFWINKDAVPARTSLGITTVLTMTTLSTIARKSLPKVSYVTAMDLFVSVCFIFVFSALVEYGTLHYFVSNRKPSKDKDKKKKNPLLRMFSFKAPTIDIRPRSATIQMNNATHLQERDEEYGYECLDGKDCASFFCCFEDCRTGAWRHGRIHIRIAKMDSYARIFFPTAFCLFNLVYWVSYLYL", "assay": "Tonic current mediated by α5-GABAA-Rs, whole-cell patch clamp in hippocampal slices", "assay_type": "cell-based", "description": "Mice were anesthetized with 2.5% Avertin. After decapitation, brains were rapidly dissected out and placed in ice-cold cutting solution containing: 79 mM NaCl, 80 mM sucrose, 26 mM NaHCO3, 10 mM glucose, 2.5 mM KCl, 1.25 mM NaH2PO4, 7 mM MgSO4, and 0.5 mM CaCl2 for tonic current recordings. The cutting solution for field EPSP recordings contained: 230 mM sucrose, 26 mM NaHCO3, 20 mM glucose, 2.5 mM KCl, 1.25 mM NaH2PO4, 10 mM MgSO4, and 0.5 mM CaCl2. Both solutions were bubbled with 95% O2/5% CO2. Hippocampal slices were cut at 350 μm with a vibratome (VT1200S, Leica, Germany) and transferred to a transitional chamber containing one half of cutting solution and one half of standard artificial cerebrospinal fluid (ACSF). The ACSF was composed of: 125.0 mM NaCl, 2.5 mM KCl, 1.3 mM MgSO4, 26.0 mM NaHCO3, 1.25 mM NaH2PO4, 2.0 mM CaCl2, and mM 10 glucose (290-300 mOsmol; gassed with 95% O2/5% CO2, pH ˜7.4). Slices were then incubated in ACSF at 32° C. for 30 minutes to recover. Subsequently, slices were maintained at room temperature for another 30 minutes before recording. Individual slices were then transferred to a submerged recording chamber where they were continuously perfused (2-3 mL/minute) with ACSF saturated by 95% O2/5% CO2 at 32° C.\nWhole-cell voltage clamp recordings were performed on dentate gyrus granule cells using a pipette solution containing: 135 mM CsCl, 5 mM Na-phosphocreatine, 10 mM HEPES, 5 mM EGTA, 4 mM MgATP, 5 mM QX-314, and 0.5 mM Na2GTP (pH 7.3 adjusted with CsOH, 280-290 mOsm/L). Pipette resistance was 2-5 MΩ, and series resistance was typically 20-40 MΩ. To record tonic GABA current, 10 μM CNQX and 50 μM DL-APV were added into the ACSF to block glutamate receptors. In some experiments, 5 μM GABA also was added into the ACSF to reveal larger tonic GABA current and increase the signal-to-noise ratio. […] The membrane potential was held at −70 mV. Data was acquired using pClamp 9 software (Molecular Devices; sampled at 10 kHz and filtered at 1 kHz), and analyzed with Clampfit 9.0 software (Molecular Devices). Field excitatory postsynaptic potentials (fEPSPs) were recorded with glass electrodes filled with 1 M NaCl and 25 mM HEPES (pH 7.3), and were evoked every 20 seconds with a parallel bipolar tungsten electrode (MicroProbes, USA), which was placed at medial perforant path in the dentate gyrus. Three evoked responses were averaged to obtain a data point. […]\nThe following was performed to investigate which subtype of GABAA-Rs mediate the enhanced tonic GABA current in AD dentate granule cells. […] Quantitatively, the tonic current blocked by L-655,708 in AD dentate granule cells was more than doubled that in WT animals (FIG. 5, panel e; WT, 35.4±6.3 pA, n=12; AD, 98.7±12.9 pA, n=9; p<0.001). […]"}, "human GAT-1 polypeptide": {"molecular_target": "human GAT-1 polypeptide (Homo sapiens, UniProt P30531)", "sequence (P30531 whole entry)": "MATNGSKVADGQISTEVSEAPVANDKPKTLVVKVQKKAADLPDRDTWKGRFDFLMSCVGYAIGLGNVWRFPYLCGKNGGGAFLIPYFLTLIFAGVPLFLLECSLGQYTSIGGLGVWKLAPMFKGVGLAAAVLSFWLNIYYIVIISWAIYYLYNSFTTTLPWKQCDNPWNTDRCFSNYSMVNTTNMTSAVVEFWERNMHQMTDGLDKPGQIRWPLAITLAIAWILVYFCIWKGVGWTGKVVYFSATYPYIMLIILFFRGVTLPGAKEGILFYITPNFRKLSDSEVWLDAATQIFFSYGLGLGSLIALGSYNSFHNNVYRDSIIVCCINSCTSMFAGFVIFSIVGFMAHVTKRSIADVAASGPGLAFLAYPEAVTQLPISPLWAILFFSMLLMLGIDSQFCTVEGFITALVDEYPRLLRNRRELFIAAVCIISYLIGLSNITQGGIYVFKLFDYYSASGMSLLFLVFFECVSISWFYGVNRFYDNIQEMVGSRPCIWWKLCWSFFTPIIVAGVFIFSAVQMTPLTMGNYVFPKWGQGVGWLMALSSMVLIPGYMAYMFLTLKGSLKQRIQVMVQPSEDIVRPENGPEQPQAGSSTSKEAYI", "details": "cited from earlier work"}, "human GAT-3 polypeptide": {"molecular_target": "T2, human GAT-3 polypeptide (Homo sapiens, UniProt P48066)", "T2 sequence (P48066 1-632)": "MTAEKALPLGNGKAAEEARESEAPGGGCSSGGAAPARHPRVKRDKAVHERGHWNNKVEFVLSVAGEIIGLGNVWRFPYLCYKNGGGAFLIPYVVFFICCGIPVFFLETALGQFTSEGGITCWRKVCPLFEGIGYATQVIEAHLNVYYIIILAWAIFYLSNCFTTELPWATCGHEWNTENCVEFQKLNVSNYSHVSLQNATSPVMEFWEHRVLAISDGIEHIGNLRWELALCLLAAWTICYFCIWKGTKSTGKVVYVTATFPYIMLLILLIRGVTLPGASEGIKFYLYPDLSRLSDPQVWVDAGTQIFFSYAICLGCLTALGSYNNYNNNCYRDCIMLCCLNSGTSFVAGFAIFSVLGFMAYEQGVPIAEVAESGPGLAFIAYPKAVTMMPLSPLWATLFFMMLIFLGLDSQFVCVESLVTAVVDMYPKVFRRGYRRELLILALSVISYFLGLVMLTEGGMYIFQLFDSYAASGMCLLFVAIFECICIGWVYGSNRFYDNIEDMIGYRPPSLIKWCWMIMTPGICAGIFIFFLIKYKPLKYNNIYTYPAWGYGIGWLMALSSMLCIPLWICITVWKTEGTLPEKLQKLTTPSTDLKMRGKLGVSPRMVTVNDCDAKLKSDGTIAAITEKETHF", "details": "cited from earlier work"}, "human GAT-2 polypeptide": {"molecular_target": "T3, human GAT-2 polypeptide (Homo sapiens, UniProt Q9NSD5)", "T3 sequence (Q9NSD5 1-602)": "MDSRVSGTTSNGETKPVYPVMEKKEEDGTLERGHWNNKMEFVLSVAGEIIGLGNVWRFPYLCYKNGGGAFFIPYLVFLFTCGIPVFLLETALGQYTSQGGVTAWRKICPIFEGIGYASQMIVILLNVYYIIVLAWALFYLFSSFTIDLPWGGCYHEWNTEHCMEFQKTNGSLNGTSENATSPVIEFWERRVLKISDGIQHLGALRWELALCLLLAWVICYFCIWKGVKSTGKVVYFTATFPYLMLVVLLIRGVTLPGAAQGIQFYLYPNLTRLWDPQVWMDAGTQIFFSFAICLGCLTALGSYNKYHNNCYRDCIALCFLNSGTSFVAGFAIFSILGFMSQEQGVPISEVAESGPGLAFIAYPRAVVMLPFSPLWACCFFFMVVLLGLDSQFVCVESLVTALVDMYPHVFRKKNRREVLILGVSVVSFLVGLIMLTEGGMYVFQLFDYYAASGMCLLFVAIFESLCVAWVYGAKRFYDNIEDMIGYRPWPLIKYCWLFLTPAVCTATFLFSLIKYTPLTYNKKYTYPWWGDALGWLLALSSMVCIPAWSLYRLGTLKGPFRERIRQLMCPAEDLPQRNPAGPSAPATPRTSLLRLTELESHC", "details": "cited from earlier work"}, "[1]": {"molecular_target": "T4, neuronal GABA transporters (Mus musculus, UniProt P31648)", "T4 construct": "from tissue; host or cells: mouse hippocampal slices, dentate granule cells", "assay": "Tonic current induced by blockade of neuronal GABA transporters in dentate granule cells", "assay_type": "cell-based", "details": "P>0.4", "description": "FIG. 7, panel a, contains typical traces showing tonic current induced by blockade of neuronal GABA transporters with NO-711 (1-[2-[[(Diphenylmethylene)imino]oxy]ethyl]-1,2,5,6-tetrahydro-3-pyridinecarboxylic acid hydrochloride hydrochloride). Large mIPSCs were truncated to better illustrate the tonic current.\nMice were anesthetized with 2.5% Avertin. After decapitation, brains were rapidly dissected out and placed in ice-cold cutting solution containing: 79 mM NaCl, 80 mM sucrose, 26 mM NaHCO3, 10 mM glucose, 2.5 mM KCl, 1.25 mM NaH2PO4, 7 mM MgSO4, and 0.5 mM CaCl2 for tonic current recordings. […]\nas §2"}, "δ-GABAA-Rs": {"molecular_target": "T5, δ-GABAA-Rs (Mus musculus, UniProt P22933+P63137+Q9D6F4)", "T5 construct": "from tissue; host or cells: mouse hippocampal slices, dentate granule cells", "T5 sequence (P22933 17-449 limits assumed)": "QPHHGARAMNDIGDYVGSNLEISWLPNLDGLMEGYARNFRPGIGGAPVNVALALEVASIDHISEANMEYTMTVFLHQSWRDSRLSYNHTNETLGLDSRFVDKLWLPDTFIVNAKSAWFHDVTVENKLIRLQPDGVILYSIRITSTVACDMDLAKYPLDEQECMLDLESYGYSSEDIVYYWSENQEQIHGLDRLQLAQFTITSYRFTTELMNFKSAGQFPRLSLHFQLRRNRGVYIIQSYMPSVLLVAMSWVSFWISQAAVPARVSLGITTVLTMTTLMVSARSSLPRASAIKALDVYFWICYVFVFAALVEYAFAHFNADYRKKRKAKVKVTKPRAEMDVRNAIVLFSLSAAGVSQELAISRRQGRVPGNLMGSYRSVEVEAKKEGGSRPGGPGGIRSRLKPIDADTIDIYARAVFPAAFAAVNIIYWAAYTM", "T5 sequence (Q9D6F4 36-552)": "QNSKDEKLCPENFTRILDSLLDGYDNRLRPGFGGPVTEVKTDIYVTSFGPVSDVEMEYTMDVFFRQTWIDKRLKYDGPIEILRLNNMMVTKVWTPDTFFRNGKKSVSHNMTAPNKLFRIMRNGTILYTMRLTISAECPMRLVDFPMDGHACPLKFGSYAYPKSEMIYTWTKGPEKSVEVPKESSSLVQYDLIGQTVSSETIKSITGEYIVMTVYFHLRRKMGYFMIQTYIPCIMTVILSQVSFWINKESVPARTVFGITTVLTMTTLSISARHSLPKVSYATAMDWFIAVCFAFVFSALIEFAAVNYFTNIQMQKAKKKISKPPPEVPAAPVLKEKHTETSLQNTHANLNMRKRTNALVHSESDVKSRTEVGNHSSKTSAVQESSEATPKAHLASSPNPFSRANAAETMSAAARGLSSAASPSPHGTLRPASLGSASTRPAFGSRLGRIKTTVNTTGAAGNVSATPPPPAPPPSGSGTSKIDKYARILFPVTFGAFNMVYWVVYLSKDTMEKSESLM", "T5 sequence (P63137 25-474 limits assumed)": "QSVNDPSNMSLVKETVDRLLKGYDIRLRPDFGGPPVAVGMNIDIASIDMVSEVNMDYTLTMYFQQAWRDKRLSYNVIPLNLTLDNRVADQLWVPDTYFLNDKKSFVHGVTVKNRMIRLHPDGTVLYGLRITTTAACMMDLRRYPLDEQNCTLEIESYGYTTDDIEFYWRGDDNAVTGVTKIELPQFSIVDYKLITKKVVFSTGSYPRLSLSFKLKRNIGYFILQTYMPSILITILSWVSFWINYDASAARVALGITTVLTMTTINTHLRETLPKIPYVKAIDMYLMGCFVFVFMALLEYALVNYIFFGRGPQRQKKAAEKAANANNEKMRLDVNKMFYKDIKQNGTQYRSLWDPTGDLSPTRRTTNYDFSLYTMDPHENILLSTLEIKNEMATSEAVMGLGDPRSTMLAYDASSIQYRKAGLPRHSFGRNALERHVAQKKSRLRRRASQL", "assay": "THIP-induced tonic current in dentate granule cells of hippocampal slices", "assay_type": "cell-based", "details": "2 μM, n=8", "description": "as §1, §2"}}, "data": [{"compound": "CCOC(=O)c1ncn2c1C1CCCN1C(=O)c1cc(OC)ccc1-2", "note": "[L-655,708, 11,12,13,13a-tetrahydro-7-methoxy-9-oxo-9H-imidazo[1,5-a]pyrrolo[2,1-c][1,4]benzodiaz-epine-1-carboxylic acid, ethyl ester]", "values": [{"measurement": "effect on memory deficit (spontaneous alternation)", "setting": "5xFAD mice", "result": "rescued the memory deficit"}, {"measurement": "effect on LTP impairment", "setting": "LTP in DG", "result": "rescued the LTP impairment"}, {"measurement": "block of tonic current", "setting": "α5-GABAA-Rs; 100 nM, AD (5xFAD) dentate granule cells", "result": "majority of tonic current in AD dentate granule cells was blocked"}, {"measurement": "tonic current blocked by L-655,708", "setting": "α5-GABAA-Rs; AD (5xFAD) dentate granule cells, n=9", "result": "98.7±12.9", "unit": "pA"}, {"measurement": "proportion of tonic current blocked, WT vs AD", "setting": "α5-GABAA-Rs; CA1 neurons", "result": "similar"}, {"measurement": "tonic current blocked by L-655,708", "setting": "α5-GABAA-Rs; WT dentate granule cells, n=12", "result": "35.4±6.3", "unit": "pA"}]}, {"compound": "COc1ccc(C2(O)CCN(CCCn3c4ccccc4c4ccccc43)CC2)cc1", "note": "[NNC 05-2045, 1-(3-(9H-carbazol-9-yl)-1-propyl)-4-(4-methoxyphenyl)-4-piperidinol]", "values": [{"measurement": "Ki", "setting": "human GAT-1 polypeptide", "result": "> 20", "unit": "µM"}, {"measurement": "Ki", "setting": "human GAT-3 polypeptide", "result": "< 10", "unit": "µM"}, {"measurement": "Ki", "setting": "human GAT-2 polypeptide", "result": "> 10", "unit": "µM"}]}, {"compound": "Cl.O=C(O)C1=CCCN(CCON=C(c2ccccc2)c2ccccc2)C1", "note": "[NO-711, 1-[2-[[(Diphenylmethylene)imino]oxy]ethyl]-1,2,5,6-tetrahydro-3-pyridinecarboxylic acid hydrochloride hydrochloride]", "values": [{"measurement": "tonic currents revealed by NO-711, WT vs. 5xFAD", "setting": "[1]", "result": "no difference"}]}, {"compound": "Oc1noc2c1CCNC2", "note": "[THIP, 4,5,6,7-tetrahydroisoxazolo[5,4-c]pyridin-3-ol]", "values": [{"measurement": "THIP-induced tonic current", "setting": "δ-GABAA-Rs; AD (5xFAD) dentate granule cells", "result": "60.7±10.4", "unit": "pA"}, {"measurement": "THIP-induced tonic current", "setting": "δ-GABAA-Rs; WT dentate granule cells", "result": "65.2±6.6", "unit": "pA"}]}]}
